Results from patent US8865733B2, “Medication and treatment for disease” (Altman Enterprises, LLC, priority 2008, dated 2014).

Tests used:
MS patients [1] = experiment: Treatment of individual MS patients with the medication (case reports, Patients A, B, C); assay type: in vivo, human; conditions: Patient C; low dose naltrexone 3 mg daily before the medication
From the text: Diagnosis was confirmed by an MRI of their brain, lumbar puncture, and visual evolved response.

MS patients [2] = conditions: LDN alone; cited from earlier work

O=C1CC[C@@]2(O)[C@H]3Cc4ccc(O)c5c4[C@@]2(CCN3CC2CC2)[C@H]1O5 [low dose naltrexone, naltrexone]
improvement under earlier treatment (MS patients [1]): no improvement
improvement of physical ability (MS patients [2]): no improvement of physical ability
